Results: patent US20170112182A1 (Next Generation Labs, LLC, priority 2015, published 2017)

Key:
[1] = vaping study with 10 subjects rating throat feel and head feel dynamics; assay type: in vivo, human
From the text: In rating the head feel dynamics and throat feel of the different compositions, the subjects used the following criteria: […]

α4β2 nAChRs = α4β2 nAChRs (Homo sapiens, UniProt P17787+P43681); assay type: cell-based
α7 nAChRs = α7 nAChRs (Homo sapiens, UniProt P36544); assay type: cell-based
α7 nAChRs, sequence (P36544 23-502): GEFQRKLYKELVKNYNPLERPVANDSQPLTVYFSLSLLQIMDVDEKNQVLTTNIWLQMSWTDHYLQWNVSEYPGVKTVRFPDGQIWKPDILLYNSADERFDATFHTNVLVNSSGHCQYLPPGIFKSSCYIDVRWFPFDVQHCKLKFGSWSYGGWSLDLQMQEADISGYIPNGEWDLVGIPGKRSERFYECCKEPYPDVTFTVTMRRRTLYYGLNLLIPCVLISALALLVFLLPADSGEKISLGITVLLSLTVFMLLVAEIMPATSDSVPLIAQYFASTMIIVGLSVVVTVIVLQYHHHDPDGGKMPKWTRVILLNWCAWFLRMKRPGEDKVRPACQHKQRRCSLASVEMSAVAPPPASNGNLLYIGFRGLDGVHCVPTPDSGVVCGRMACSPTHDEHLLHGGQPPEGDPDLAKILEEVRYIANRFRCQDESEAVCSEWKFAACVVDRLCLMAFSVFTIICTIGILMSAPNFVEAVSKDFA

α4β2 nAChRs, sequence (P43681 29-627 limits assumed): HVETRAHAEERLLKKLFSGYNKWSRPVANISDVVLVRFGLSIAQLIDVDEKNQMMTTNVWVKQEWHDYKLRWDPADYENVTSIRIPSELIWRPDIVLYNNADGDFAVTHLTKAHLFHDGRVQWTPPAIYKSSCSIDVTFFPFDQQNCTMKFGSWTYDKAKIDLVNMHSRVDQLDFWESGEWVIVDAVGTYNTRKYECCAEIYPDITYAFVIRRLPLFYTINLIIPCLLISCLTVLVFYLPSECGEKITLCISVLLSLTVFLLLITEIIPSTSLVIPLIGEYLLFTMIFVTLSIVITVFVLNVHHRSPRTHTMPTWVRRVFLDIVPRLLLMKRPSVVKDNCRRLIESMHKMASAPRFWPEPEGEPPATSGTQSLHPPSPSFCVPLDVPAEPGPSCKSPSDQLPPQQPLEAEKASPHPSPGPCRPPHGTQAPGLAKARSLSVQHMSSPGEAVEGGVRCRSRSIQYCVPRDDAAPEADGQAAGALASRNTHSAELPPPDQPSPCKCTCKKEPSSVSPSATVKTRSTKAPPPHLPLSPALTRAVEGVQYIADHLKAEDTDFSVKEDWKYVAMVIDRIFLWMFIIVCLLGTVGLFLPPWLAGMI
α4β2 nAChRs, sequence (P17787 26-502): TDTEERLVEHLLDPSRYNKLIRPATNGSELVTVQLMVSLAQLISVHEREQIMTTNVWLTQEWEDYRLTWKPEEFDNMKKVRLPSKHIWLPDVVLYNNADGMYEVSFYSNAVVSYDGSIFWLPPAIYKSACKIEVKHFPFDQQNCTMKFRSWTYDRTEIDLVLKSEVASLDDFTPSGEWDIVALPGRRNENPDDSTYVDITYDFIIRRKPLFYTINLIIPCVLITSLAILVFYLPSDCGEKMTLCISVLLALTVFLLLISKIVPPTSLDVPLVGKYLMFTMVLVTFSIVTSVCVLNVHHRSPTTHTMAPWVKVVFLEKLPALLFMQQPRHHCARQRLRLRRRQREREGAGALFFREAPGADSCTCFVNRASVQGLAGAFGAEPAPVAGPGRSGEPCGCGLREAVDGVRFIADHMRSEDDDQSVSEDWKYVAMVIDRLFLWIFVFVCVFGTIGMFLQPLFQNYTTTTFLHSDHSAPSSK

Row | SMILES | Head Feel Dynamics compared with tobacco-derived counterpart ([1]; 0.3% loading level) | Head Feel Dynamics compared with tobacco-derived counterpart ([1]; 0.6% loading level) | agonist character in words (α4β2 nAChRs) | agonist character in words (α7 nAChRs)
1 | CN1CCCC1c1cccnc1 (racemic) [Synthetic RS racemic nicotine, RS-Nicotine] | slightly less effect | slightly less effect | – | –
2 | CN1CCC[C@H]1c1cccnc1 [Synthetic S nicotine, S-nicotine] | same (within experimental error) | same (within experimental error) | – | –
3 | CN1CCC[C@@H]1c1cccnc1 [Synthetic R nicotine, R nicotine] | – | – | partial agonist | full, weak agonist
